Measurements: paper PMC5247677 (Scientific Reports, 2017)
Read-outs that look alike come from different tables or passages of the source.

Tests used:
[1] = tested on: carrageenan-induced mechanical allodynia in mice; test: Carrageenan-induced mechanical allodynia (electronic von Frey); format: in vivo, mouse (C57BL/6 J)
Protocol: (§1) For behavioural assessment we used adult male C57BL/6 J mice or Sprague Dawley rats aged 5–8 weeks. Animals were housed in groups of 2–4 per cage, under 12 h light-dark cycles with standard rodent chow and water ad libitum. All assessments were performed by a blinded investigator unaware of the treatment each animal received. Ethical approval for in vivo experiments in animals was obtained from the University of Queensland, University of Sydney or United Kingdom Home Office animal ethics committee. Experiments involving animals were conducted in accordance with the International Association for the Study of Pain Guidelines for the Use of Animals in Research and the Australian Code of Practice for the Care and Use of Animals for Scientific Purposes, 8th edition (2013).
(§2) Carrageenan (1% w/v) was administered by i.pl injection in mice as previously described. Behavioural assessment was performed 3 h post-injection. […] Mechanical thresholds were determined using electronic von Frey (MouseMet Electronic von Frey, TopCat Metrology, UK) as previously described. Thermal thresholds were determined using the thermal probe test (MouseMet Thermal, TopCat Metrology) as described.

[2] = tested on: formalin-induced pain in mice; test: Formalin-induced spontaneous pain behaviours; format: in vivo, mouse (C57BL/6 J)
Protocol: as §1
Formalin (1% v/v) was administered by i.pl injection in mice as previously described. […] Spontaneous pain behaviours were counted from video recordings. Phase I was defined as 0–10 min and Phase II defined as 10–55 min following formalin injection.

NaV1.7 [3] = settings: cited from earlier work
From the text: In general, spider venom-derived peptides bind to the voltage-sensing domains of NaV channels to modify gating associated with channel activation and inactivation.

[4] = cited from earlier work
From the text: (§3) However, while NaV1.7 is expressed on axons, it is unlikely to have a major role in action potential propagation, given it has slow recovery from fast inactiv ...

NaV1.7 [5] = settings: 30 mg/kg; cited from earlier work
rat NaV1.7 channel = settings: cited from earlier work
[6] = tested on: carrageenan-induced thermal allodynia in mice; test: Carrageenan-induced thermal allodynia (thermal probe test); format: in vivo, mouse (C57BL/6 J); settings: P > 0.05
Protocol: as §1, §2

[7] = tested on: noxious heat response in mice; test: Hot plate test (50 °C), noxious heat; format: in vivo, mouse (C57BL/6 J); settings: 30 mg/kg i.p., control 25.9 ± 1.8 s, P > 0.05, n = 6–16
[8] = tested on: mice and human lacking functional NaV1.7; settings: in vivo; cited from earlier work
[9] = tested on: acute heat responses in mice; format: in vivo, mouse (C57BL/6 J); settings: n = 6
Protocol: Paw-withdrawal latency in mice pre-administered phlotoxin 1 (i.p. 50 μg/kg; Venomtech, Valbonne, France), thiorphan (i.p. 20 mg/kg), buprenorphine (i.p. 50 μg/kg), or combinations, was determined using the Hargreaves apparatus (Plantar Analgesia Meter, IITC, CA, USA), with three withdrawal responses measured per animal.

[10] = tested on: inflammatory pain in rodents; settings: rodent model of inflammatory pain; cited from earlier work
From the text: as §3

NaV isoforms = settings: up to 2 μM; cited from earlier work

## Cn1nccc1-c1ccccc1Oc1ccc(S(=O)(=O)Nc2nccs2)cc1C#N [PF-04856264]
[1]; PF-04856264 30 mg/kg i.p., control 1.2 ± 0.2 g, P > 0.05, n = 4–12
  paw withdrawal force (PWF): 1.5 ± 0.3 g
[2]; 30 mg/kg i.p., formalin 1% i.pl., P > 0.05, two-way ANOVA, n = 4–15
  formalin Phase I and Phase II pain behaviours: neither Pn3a (3 mg/kg i.p.) (Fig. 7d) or PF-04856264 (30 mg/kg ip.) (Figure 7e) significantly reduced Phase I or Phase II pain behaviours
NaV1.7 [3]
  state preference at NaV1.7: preferentially bind to the slow inactivated state
[4]; expectation
  blood-brain barrier penetration: unlikely to cross the blood-brain barrier
NaV1.7 [5]
  efficacy in the OD1 model: efficacy in the OD1 model at a dose of 30 mg/kg was previously reported
Rat NaV1.7 channel
  potency at the rat NaV1.7 channel: low potency at the rat NaV1.7 channel
[6]; PF-04856264 30 mg/kg i.p., control 44.1 ± 0.5 °C, n = 4–12
  paw withdrawal temperature (PWT): 44.4 ± 1.2 °C
[7]
  time to withdrawal, hot plate: 30.7 ± 3.8 s

## Nc1[nH]ncc1-c1cc(Cl)ccc1Oc1cc(F)c(S(=O)(=O)Nc2cscn2)cc1Cl [PF-05089771]
NaV1.7 [3]
  state preference at NaV1.7: preferentially bind to the slow inactivated state

## NCC1(CC(=O)O)CCCCC1 [gabapentin]
[1]; gabapentin 100 mg/kg i.p., control 1.1 ± 0.3 g, P > 0.05, n = 3–8
  paw withdrawal force (PWF): 1.1 ± 0.1 g
[6]; gabapentin 100 mg/kg i.p., control 44.5 ± 0.9 °C, n = 3–8
  paw withdrawal temperature (PWT): 45.4 ± 0.5 °C

## C=CCN1CC[C@]23c4c5ccc(O)c4O[C@H]2C(=O)CC[C@@]3(O)[C@H]1C5 [naloxone]
[8]
  reversal of analgesia: substantially reverses analgesia

## COc1ccc2c3c1O[C@H]1C(=O)CC[C@@]4(O)[C@@H](C2)N(C)CC[C@]314 [oxycodone]
[1]; oxycodone 0.67 mg/kg i.p., control 1.2 ± 0.2 g, n = 4–12
  paw withdrawal force (PWF): 1.8 ± 0.2 g
[2]; oxycodone 1 mg/kg i.p., control 227 ± 14, n = 7–11
  pain behaviours, formalin Phase II: 231 ± 22

## O=C(O)CNC(=O)C(CS)Cc1ccccc1 (centres unmarked) [thiorphan]
[9]; thiorphan 20 mg/kg i.p., control 5.7 ± 0.9 s
  time to withdrawal, acute heat: 5.0 ± 0.4 s

## ProTx-II: NaV1.7 selective spider peptide from the venom of Thrixopelma pruriens
NaV1.7 [3]
  onset of effect at NaV1.7: slow onset of effect
[10]
  analgesic activity: lack analgesic activity
[4]; rodent
  plasma levels: plasma levels sufficient to inhibit NaV1.7 in vitro

## buprenorphine
[9]; buprenorphine 50 μg/kg i.p., control 6.3 ± 0.5 s
  time to withdrawal, acute heat: 7.2 ± 0.5 s

## phlotoxin 1: previously characterized spider peptide NaV1.7 inhibitor
[9]; phlotoxin 1 50 μg/kg i.p., buprenorphine experiment, control 6.3 ± 0.5 s
  time to withdrawal, acute heat: 5.8 ± 0.7 s
[9]; phlotoxin 1 50 μg/kg i.p., thiorphan experiment, control 5.7 ± 0.9 s
  time to withdrawal, acute heat: 7.3 ± 0.9 s
NaV1.7 [3]
  IC50: 0.26 µM
NaV isoforms
  effect on other NaV isoforms: no effect on other NaV isoforms
